# Data as given in PMC8758724, “Molecular mechanism of agonism and inverse agonism in ghrelin receptor” (Nature Communications, 2022).
# No end group written: not given here. *: point of attachment. Octanoyl = CCCCCCCC(=O)*
# Assays:
# ghrelin receptor mutants = experiment: IP1 accumulation, ghrelin receptor mutants, HEK293 cells, 37 °C 2 h (compound 21 containing 10 nM ghrelin); type: cell-based, human; conditions: for ghrelin-induced activation, effect of mutation: peer review file
# Excerpt: Fig. 2 The binding mode of PF-05190457 with the ghrelin receptor. a The detailed binding mode of PF-05190457 in the orthosteric pocket of the ghrelin receptor. The |Fo| − |Fc| omit map (contoured at 3.0 σ) for PF-05190457 (shown as marine blue sticks). […] The diazaspiro core is shown in pink, arm-1 is sky blue, and arm-2 is light green. The red solid lines indicate hydrogen bonds involved in interactions with the side chains of key residues. d–f Key residues of the ghrelin receptor (wheat sticks) involved in ligand binding in cavity III (d), cavity I (e), and cavity IV (f). The binding pocket is highly hydrophobic, and the particular polar network is shown as black dotted lines. g IP1 accumulation induced by the inverse agonist PF-05190457 and antagonist compound 21. Bars represent the difference in the calculated potency (pIC50) of the inverse agonist for mutations relative to the WT ghrelin receptor. Data are colored according to extent of effect. nd not detected, **P < 0.01, ***P < 0.001 (one-way analysis of variance (ANOVA) followed by Dunnett’s test, compared with the response of WT, P < 0.001, P < 0.001, P < 0.001, P > 0.999, nd, nd, P = 0.05, nd, P < 0.001, P < 0.001, nd, nd, nd, nd, nd, nd, P < 0.01, P = 0.264, P < 0.001, nd, P < 0.001, nd from left to right). Data represent the mean ± SEM from n = 3 biologically independent experiments performed in triplicate. […] The salt bridges between E124^3.33 and R283^6.55 as well as between R102^2.63 and Q120^3.29, are broken upon PF-05190457 binding.
# To measure the activity of inverse agonist PF-05190457 (Tocris, Cat. No. 6350), we carried out IP1 accumulation assays for ghrelin receptor independent of agonist. The agonist ghrelin and antagonist compound 21 were also performed as the control. The cDNA of ghrelin receptor subcloned into pcDNA3.1(+) expression vector with a HA signal sequence followed by a Flag tag at the N-terminus. Point mutations used in our study were generated by using Q5 site-Directed Mutagenesis kit (NEB). All the constructs were verified by sequencing. The constructs were expressed in HEK293 cells using PEI transfection reagent (YEASEN, 40815es03) according to the manufacturer’s instruction. Cells were harvested 48 h post transfection.
# IP accumulation was measured using Cisbio IP1 assay kit (Cisbio, 62IPAPEB), which has been previously described. In brief, the harvested cells were distributed in a low volume 96-well dish and stimulated with increased concentration of inverse agonist PF-05190457, agonist ghrelin peptide or antagonist compound 21 containing 10 nM ghrelin peptide at 37 °C for 2 h. After that, d2-labeled IP1 and cryptate-labeled anti-IP1 monoclonal antibody dissolved in Lysis Buffer were added to the wells. After 1 h incubation at room temperature. IP1 was quantified using Synergy H1 microplate reader (BioTek) with excitation at 320 nm, emission at 620 nm, and 665 nm. The accumulation of IP1 was calculated according to a standard dose–response curve in GraphPad Prism 8 (GraphPad Software). Data were represented as the mean ± SEM from three independent experiments and all experiments were repeated at least three times.
# Supplementary Fig. 6: IP1 accumulation assay.
# (a) Expression level of the ghrelin receptor mutants. Data represent the mean ± SEM from three independent experiments performed in triplicate. ns, not significant, **p < 0.01, ***p < 0.001 (one-way analysis of variance [ANOVA] followed by Dunnett’s test, compared with the response […]
# 0.001, p=0.996, p=0.008, p=0.999 from left to right). Data represent the mean ± SEM from n=3 biologically independent experiments performed in triplicate.
# (b) IP1 accumulation measurement induced by inverse agonist PF-05190457(left), agonist ghrelin (middle) and antagonist compound 21 (right). ns, not significant; nd, not detected; ***p < 0.001 […]
# < 0.001, nd, nd, nd, p=0.264, nd, nd from left to right). Data represent the mean ± SEM from […]
# [1] = system: wild-type ghrelin receptor; experiment: IP1 accumulation, wild-type ghrelin receptor, HEK293 cells, 37 °C 2 h, Cisbio IP1 kit; type: cell-based, human; conditions: WT
# Description: Fig. 1 Overall structures of ghrelin receptors bound to inverse agonist and agonist. a Dose-dependent responses of endogenous agonist ghrelin, inverse agonist PF-05190457 and antagonist compound 21 containing 10 nM ghrelin peptide at wild-type ghrelin receptor measured by cellular IP1 accumulation assays. […] Data represent the mean ± SEM from n = 3 biologically independent experiments performed in triplicate. b View from within the plane of the membrane. The inverse agonist-bound ghrelin receptor is represented as a wheat cartoon, and PF-05190457 is shown as a marine blue sphere. Cryo-EM structure of the agonist ghrelin-bound ghrelin receptor-Gαo1-scFv16 complex. c Ghrelin peptides and receptors are shown as deep salmon spheres and aquamarine cartoons, respectively. The Go heterotrimer and scFv16 are shown in the gray cartoon. d View from the extracellular side of the membrane. […]
# IP accumulation was measured using Cisbio IP1 assay kit (Cisbio, 62IPAPEB), which has been previously described. […] IP1 was quantified using Synergy H1 microplate reader (BioTek) with excitation at 320 nm, emission at 620 nm, and 665 nm. The accumulation of IP1 was calculated according to a standard dose–response curve in GraphPad Prism 8 (GraphPad Software). […]
substance,measurement,setting,value
"ghrelin: endogenous agonist, 28-amino acid peptide with octanoyl modification at the side chain of Ser+3 (GSS(Octanoyl)FLSPEHQRVQQRKESKKPPAKLQPR; UniProt Q9UBU3 24-51, looked up)","ghrelin-induced activation, effect of mutation",ghrelin receptor mutants; D99^2.60 mutant,decreased potency of ghrelin induced activation
same,"potency, effect of mutation",ghrelin receptor mutants; F279^6.51A,impaired the potency
same,"potency, effect of mutation",ghrelin receptor mutants; F312^7.42A,impaired the potency
same,"ghrelin-induced activation, effect of mutation",ghrelin receptor mutants; R102^2.63 mutant,decreased potency of ghrelin induced activation
same,"potency, effect of mutation",ghrelin receptor mutants; W276^6.48A,impaired the potency
same,activation potency,[1],high activation potency as a full agonist
